Where two headings read alike, the source gives them in different places.
Key:
[1] = tested on: Dreissena Polimorfa Larvae; assay: Toxicity test LC50 on Dreissena Polimorfa larvae; conditions: for LC50 Dreissena Polimorfa Larvae: in vivo
Description: (§1) The table below lists the results of the toxicity tests performed on fish fauna and on some phyto- and zooplankton species considered among the possible targets of the claimed method.

Artemia Salina = assay: Toxicity test LC50 on Artemia Salina; conditions: in vivo
Description: as §1

Isochris Galbana = assay: Toxicity test LC50 on Isochris Galbana; type: cell-based
Description: as §1

Eurytemora Affinis [2] = assay: Toxicity test LC50 on Eurytemora Affinis; conditions: in vivo
Description: as §1

Eurytemora Affinis [3] = conditions: in vivo
Description: as §1

[4] = Photodegradability in sunlight and UV light; type: physicochemical; conditions: 10-ppm solution in drinking water (pH 6.5-7.5)
Method: In a fully similar manner, the same behaviour is confirmed if one assesses the photodegradability in sunlight and UV light (the radiation test was performed on a 10-ppm solution in drinking water (pH 6.5-7.5)

[5] = Hydrolysis test performed in darkness; type: physicochemical
[6] = Feeding trial in rabbits in the fattening stage (growth, mortality); type: in vivo, New Zealand White rabbits; conditions: in feed: Bacitracin zinc 1.5 ppm, MSB 250 ppm; for Final number of animals / Final average weight / Mortality %: end of fattening cycle (53 days after weaning); for Final number of animals: 200 animals initially; for Average daily growth: fattening cycle of 53 days after weaning
Method: The effect of a preparation comprising menadione sodium bisulfite coated with saturated vegetable fatty acids on rabbits in the fattening stage is evaluated.
Composition of the preparation (per Kg of final preparation):
MSB coated with hydrogenated vegetable fatty acids (1:1 inclusion ratio) 250 g;
This preparation is added in the quantity of 1 Kg per ton of feed, so that the final concentration of MSB is equal to 125 ppm/Kg of finished food. Since rabbits are fed with 120-150 grams of feed/day, the concentration of MSB is equal to an average daily dose of approximately 15-20 mg of MSB/animal per day.
New Zealand White animals, weaned at 32 days, were grown with the preparation cited above and compared with animals of the same race, fed with the same basic feed but treated with bacitracin zinc in a quantity equal to 150 mg/100 Kg of feed and with animals lacking any drug integration.

[7] = OECD301 A guidelines, cited from earlier work
[8] = Biodegradability OECD 301 A (92/69/EEC C4-A); type: physicochemical
Description: The degradability of a substance is normally a factor that is impossible to predict on a structural basis. […] On the basis of the available data related to the compounds that are chemically more similar to the derivatives of menadione described here, one could have expected a degradability comprised between the 0% (percentage calculated on the initial mass of product expressed as mg/l) of menadione (2-methyl-1,4-naphthalenedione) and the 17% (assessed after 28 days) of menadione sodium bisulfite (where the calculation was performed by using the OECD301 A guidelines annexed to EEC directive 92/69/EEC C4-A).
Finally, biodegradability according to the 92/69/EEC C4-A regulation was also assessed.

Rainbow trout = assay: Toxicity test LC50 on fish fauna, Rainbow trout; type: in vivo
Description: as §1

| Compound | LC50 Dreissena Polimorfa Larvae [1] | LC50 Artemia Salina (Artemia Salina) | LC50 Isochris Galbana (Isochris Galbana) | LC50 Eurytemora Affinis (Eurytemora Affinis [3]) | Light exp. Total Degr. [4] | ½ LIFE, hydrolysis ([5]; PH 9, in darkness) | Final number of animals [6] | Final average weight [6] | Mortality % [6] | Average daily growth [6] | further results |
| --- | --- | --- | --- | --- | --- | --- | --- | --- | --- | --- | --- |
| CC1=CC(=O)c2c(O)cccc2C1=O [2-methyl-5-hydroxy-1,4-naphthalenedione] | 0.2 ppm | 5 ppm | 0.5 ppm |  |  |  |  |  |  |  | LC50 Eurytemora Affinis (Eurytemora Affinis [2]): 5 ppm |
| Cc1ccc2c(c1)C(=O)c1ccccc1C2=O [2-methyl-anthraquinone] | 200 ppm | 5 ppm | 0.5 ppm | 5 ppm |  |  |  |  |  |  |  |
| O=C1C=CC(=O)c2c(O)cccc21 [Juglone, 5-hydroxy-1,4-naphthalenedione, reference compound] |  |  |  |  | 48 h | 15 h |  |  |  |  |  |
| CC1(S(=O)(=O)[O-])CC(=O)c2ccccc2C1=O.[Na+] (centres unmarked) [MSB, menadione sodium bisulfite] |  |  |  |  |  |  | 191 | 2.84 kilograms | 4.5% | 38.1 grams | degradability (percentage calculated on the initial mass of product expressed as mg/l) ([7]; assessed after 28 days, available/reported data): 17%; % biodegr. OECD 301 A ([8]; after 7 days): 5%; % biodegr. OECD 301 A ([8]; after 14 days): 10% |
| CC1=CC(=O)c2ccccc2C1=O [Menadione, 2-methyl-1,4-naphthalenedione, reference compound] | 500 ppm | 5 ppm | 0.05 ppm | 5 ppm | >5000 h | 550 h |  |  |  |  | LC50 on Dreissena Polimorfa relative to 2-methyl-5-hydroxy-1,4-naphthalenedione ([1]; 500 ppm vs 0.2 ppm): 2500 times; LC50 Rainbow trout (assessed on 96 h) (Rainbow trout): 0.1 ppm; Light exp. ½ life [4]: 1500 h; degradability (percentage calculated on the initial mass of product expressed as mg/l) ([7]; available data, time not stated): 0%; ½ LIFE, hydrolysis ([5]; PH 6.8, in darkness): 1500 h |
| bacitracin zinc [reference compound] |  |  |  |  |  |  | 185 | 2.77 kilograms | 7.5% | 36.8 grams |  |
